Experimental findings from patent US7803801B2, “Aminopyridine compounds having Syk inhibitory activity” (Japan Tobacco, Inc., priority 2005, dated 2010) are described below.

Like-named read-outs stand apart in the source and are kept apart here.

Experiment [1] addresses GST-Syk Full Protein (human) (Homo sapiens, UniProt P43405). The experiment in a line: Syk kinase inhibition test (HTRF method). Format: biochemical. The conditions noted are these: read-out: sykHTRF ave IC50. Summed up: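 HTRF read-out: after EDTA termination and 1 h with XL665-streptavidin and Eu-anti-phosphotyrosine, the 665/620 nm ratio was measured. The reaction ran 30 min at 20–25 °C with final 6.4 nM human GST-Syk, 250 nM biotinylated peptide, 100 μM ATP, pH 7.0 HEPES buffer, 2% DMSO.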

The subject of experiment [2] is cultured human mast cells. The experiment in a line: Degranulation inhibition test using cultured human mast cells (IgE cross-linking, β-Hexosaminidase release). Type of experiment: cell-based. The conditions noted are these: Mast cell, cultured human mast cells, read-out: human degranulation ave. IC50. The essentials: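 Degranulation was triggered by anti-hIgE (10 μg/mL final, 30 min, 37 °C) after a 10-min compound pretreatment (DMSO 0.1%) of cord-blood CD34+-derived mast cells primed 5 days with IL-4 and IgE. β-Hexosaminidase in supernatant was measured with p-nitrophenyl-GlcNAc substrate (A405), expressed against water-lysed total; IC50 (M).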

Setting [3] is: HTRF, 100 μM ATP, 30 min room temperature, average.
[4] abbreviates: anti-hIgE stimulation, β-Hexosaminidase index, average.

Broadly, the IC50 is the concentration at which inhibition is half-maximal. Consider `Cc1ccnc(Nc2cccc(-c3cnc(N4CCN(C(=O)OC(C)(C)C)CC4)s3)n2)c1` [Compound A-403], for which the IC50 was more than 1000 nM in experiment [1] (Tables 1-x, compounds A) and more than 1000 nM in experiment [2] (Tables 1-x, compounds A).

For `Cc1ccnc(Nc2cccc(-c3cnc([C@@H]4COC(=O)N4CC(=O)N4C[C@@H](O)[C@@H](O)C4)s3)n2)c1` [Compound A-404], the IC50 is more than 1000 nM in experiment [1] (Tables 1-x, compounds A) and more than 1000 nM in experiment [2] (Tables 1-x, compounds A).

On to `Cc1ccnc(Nc2cccc(-c3cnc([C@@H]4CN(C)C(=O)O4)s3)n2)c1` [Compound A-405], for which the half-maximal inhibitory concentration (IC50) in experiment [1] (Tables 1-x, compounds A) was in the range of 100 to 1000 nM; in experiment [2] (Tables 1-x, compounds A), 100 to 1000 nM.

As for `Cc1ccnc(Nc2cccc(-c3cnc([C@@H]4COC(=O)N4CC(=O)O)s3)n2)c1` [Compound A-407], the 50% inhibitory concentration (IC50) in experiment [1] (Tables 1-x, compounds A) was more than 1000 nM; in experiment [2] (Tables 1-x, compounds A), more than 1000 nM.

`Cc1ccnc(Nc2cccc(-c3cnc([C@@H]4COC(=O)N4CC(=O)N(C)C)s3)n2)c1` [Compound A-408]: the IC50 in experiment [1] (Tables 1-x, compounds A) was more than 1000 nM; in experiment [2] (Tables 1-x, compounds A), more than 1000 nM.

As for `Cc1ccnc(Nc2cccc(-c3cnc([C@@H]4CNC(=O)O4)s3)n2)c1` [Compound A-409, (S)-5-{5-[6-(4-methylpyridin-2-ylamino)pyridin-2-yl]thiazol-2-yl}oxazolidin-2-one], the half-inhibitory concentration (IC50) in experiment [1] (Tables 1-x, compounds A) was less than 100 nM; in experiment [2] (Tables 1-x, compounds A), less than 100 nM.

For the molecule `Cc1ccnc(Nc2cccc(-c3cnc(N4CCN(C=O)CC4)s3)n2)c1` [Compound A-410], the IC50 was 100 to 1000 nM in experiment [1] (Tables 1-x, compounds A) and less than 100 nM in experiment [2] (Tables 1-x, compounds A).

As to `CC(=O)N[C@H]1CN(C(=O)COCc2ncc(-c3cccc(Nc4cc(C)ccn4)n3)s2)C[C@@H]1O` [Compound A-411], the half-maximal inhibitory concentration (IC50) was more than 1000 nM in experiment [1] (Tables 1-x, compounds A) and more than 1000 nM in experiment [2] (Tables 1-x, compounds A).

Turning to `Cc1ccnc(Nc2cccc(-c3cnc(N4CCN(S(C)(=O)=O)CC4)s3)n2)c1` [Compound A-412], the concentration for half-maximal inhibition (IC50) in experiment [1] (Tables 1-x, compounds A) was in the range of 100 to 1000 nM; in experiment [2] (Tables 1-x, compounds A), 100 to 1000 nM.

Consider `Cc1ccnc(Nc2cccc(-c3cnc(N4CCN(C(=O)C5CCC(O)CC5)CC4)s3)n2)c1` (stereo not drawn) [Compound A-413], for which the half-maximal inhibitory concentration (IC50) in experiment [1] (Tables 1-x, compounds A) fell in the range of 100 to 1000 nM; in experiment [2] (Tables 1-x, compounds A), 100 to 1000 nM.

Take `CC(=O)N[C@H]1CN(Cc2ncc(-c3cccc(Nc4cc(C)ccn4)n3)s2)C[C@@H]1O` [Compound A-414]: the IC50 in experiment [1] (Tables 1-x, compounds A) fell in the range of 100 to 1000 nM; in experiment [2] (Tables 1-x, compounds A) it was 100 to 1000 nM.

In the case of `Cc1ccnc(Nc2cccc(-c3cnc(CN4C(=O)CNCC4=O)s3)n2)c1` [Compound A-415], the half-inhibitory concentration (IC50) in experiment [1] (Tables 1-x, compounds A) lay in the range of 100 to 1000 nM; in experiment [2] (Tables 1-x, compounds A), 100 to 1000 nM.

On to `Cc1ccnc(Nc2cccc(-c3cnc(CN4CCNC(=O)C4)s3)n2)c1` [Compound A-416, 4-{5-[6-(4-methylpyridin-2-ylamino)pyridin-2-yl]thiazol-2-ylmethyl}piperazin-2-one], for which the half-maximal inhibitory concentration (IC50) is less than 100 nM in experiment [1] (Tables 1-x, compounds A) and less than 100 nM in experiment [2] (Tables 1-x, compounds A).

As to `Cc1ccnc(Nc2cccc(-c3cnc(N4CCOCC4)s3)n2)c1` [Compound A-417, N-(4-methylpyridin-2-yl)-N-[6-(2-morpholin-4-ylthiazol-5-yl)pyridin-2-yl]amine], the IC50 in experiment [1] (Tables 1-x, compounds A) was less than 100 nM; in experiment [2] (Tables 1-x, compounds A), 100 to 1000 nM.

On to `Cc1ccnc(Nc2cccc(-c3cnc(N4CCSCC4)s3)n2)c1` [Compound A-418], for which the IC50 in experiment [1] (Tables 1-x, compounds A) was in the range of 100 to 1000 nM; in experiment [2] (Tables 1-x, compounds A), 100 to 1000 nM.

`CC(=O)N1CCN(c2ncc(-c3cccc(Nc4cc(C)ccn4)n3)s2)CC1` [Compound A-419, 1-(4-{5-[6-(4-methylpyridin-2-ylamino)pyridin-2-yl]thiazol-2-yl}piperazin-1-yl)ethanone]: the IC50 in experiment [1] (Tables 1-x, compounds A) was less than 100 nM; in experiment [2] (Tables 1-x, compounds A) it was 100 to 1000 nM.

Regarding `Cc1ccnc(Nc2cccc(-c3cnc(N4CCC(C(=O)N5CCC(O)CC5)CC4)s3)n2)c1` [Compound A-420], the IC50 in experiment [1] (Tables 1-x, compounds A) was 100 to 1000 nM; in experiment [2] (Tables 1-x, compounds A), more than 1000 nM.

As for `Cc1ccnc(Nc2cccc(-c3cnc(N4CCN(S(N)(=O)=O)CC4)s3)n2)c1` [Compound A-421, 4-{5-[6-(4-methylpyridin-2-ylamino)pyridin-2-yl]thiazol-2-yl}piperazine-1-sulfonamide], the half-inhibitory concentration (IC50) is less than 100 nM in experiment [1] (Tables 1-x, compounds A) and 100 to 1000 nM in experiment [2] (Tables 1-x, compounds A).

As for `COc1ccnc(Nc2cccc(-c3cnc(N4CCOCC4)s3)n2)c1` [Compound A-422, N-(4-methoxypyridin-2-yl)-N-{6-[2-(morpholin-4-yl)thiazol-5-yl]pyridin-2-yl}amine], the IC50 in experiment [1] (Tables 1-x, compounds A) was less than 100 nM; in experiment [2] (Tables 1-x, compounds A), 100 to 1000 nM.

Turning to `Cc1ccnc(Nc2cccc(-c3cnc(N4C[C@@H](O)[C@@H](O)C4)s3)n2)c1` [Compound A-423, (3R,4S)-1-{5-[6-(4-methylpyridin-2-ylamino)pyridin-2-yl]thiazol-2-yl}pyrrolidine-3,4-diol], the IC50 in experiment [1] (Tables 1-x, compounds A) was less than 100 nM; in experiment [2] (Tables 1-x, compounds A) it was 100 to 1000 nM.

Regarding `CC(=O)N(C)c1ncc(-c2cccc(Nc3cc(C)ccn3)n2)s1` [Compound A-424, N-methyl-N-{5-[6-(4-methylpyridin-2-ylamino)pyridin-2-yl]thiazol-2-yl}acetamide], the IC50 in experiment [1] (setting [3]) was less than 100 nM; in experiment [2] (setting [4]), 100 to 1000 nM.

In the case of `Cc1ccnc(Nc2cccc(-c3sc(N4CCOCC4)nc3C)n2)c1` [Compound A-425, N-[6-(4-methyl-2-morpholin-4-ylthiazol-5-yl)pyridin-2-yl]-N-(4-methylpyridin-2-yl)amine], the IC50 in experiment [1] (setting [3]) is less than 100 nM; in experiment [2] (setting [4]), 100 to 1000 nM.

On to `CNc1ncc(-c2cccc(Nc3cc(C)ccn3)n2)s1` [Compound A-426, N-methyl-N-{5-[6-(4-methylpyridin-2-ylamino)pyridin-2-yl]thiazol-2-yl}amine], for which the 50% inhibitory concentration (IC50) in experiment [1] (setting [3]) was less than 100 nM; in experiment [2] (setting [4]), 100 to 1000 nM.

On to `CNC(=O)N1CCN(c2ncc(-c3cccc(Nc4cc(C)ccn4)n3)s2)CC1` [Compound A-427, N-methyl-4-{5-[6-(4-methylpyridin-2-ylamino)pyridin-2-yl]thiazol-2-yl}piperazine-1-carboxamide], for which the concentration for half-maximal inhibition (IC50) in experiment [1] (setting [3]) and in experiment [2] (setting [4]) was less than 100 nM in each case.

As for `Cc1ccnc(Nc2cccc(-c3sc(N4CCC(C(N)=O)CC4)nc3C)n2)c1` [Compound A-429, 1-{4-methyl-5-[6-(4-methylpyridin-2-ylamino)pyridin-2-yl]thiazol-2-yl}piperidine-4-carboxamide], the half-inhibitory concentration (IC50) in experiment [1] (Tables 1-x, compounds A) was less than 100 nM; in experiment [2] (Tables 1-x, compounds A), more than 1000 nM.

Consider `COC1CCN(c2ncc(-c3cccc(Nc4cc(C)ccn4)n3)s2)CC1` [Compound A-431, N-{6-[2-(4-methoxypiperidin-1-yl)thiazol-5-yl]pyridin-2-yl}-N-(4-methylpyridin-2-yl)amine], for which the IC50 in experiment [1] (Tables 1-x, compounds A) was less than 100 nM; in experiment [2] (Tables 1-x, compounds A), 100 to 1000 nM.

For the molecule `Cc1ccnc(Nc2cccc(-c3cnc(N4CCN(C)CC4)s3)n2)c1` [Compound A-432, N-{6-[2-(4-methylpiperazin-1-yl)thiazol-5-yl]pyridin-2-yl}-N-(4-methylpyridin-2-yl)amine], the half-maximal inhibitory concentration (IC50) in experiment [1] (Tables 1-x, compounds A) is less than 100 nM; in experiment [2] (Tables 1-x, compounds A), 100 to 1000 nM.

For `Cc1ccnc(Nc2cccc(-c3cnc(N4CCC(O)CC4)s3)n2)c1` [Compound A-433, 1-{5-[6-(4-methylpyridin-2-ylamino)pyridin-2-yl]thiazol-2-yl}piperidin-4-ol], the IC50 was less than 100 nM in experiment [1] (Tables 1-x, compounds A) and less than 100 nM in experiment [2] (Tables 1-x, compounds A).

In the case of `Cc1ccnc(Nc2cccc(-c3cnc(N4CCC(C(=O)N(C)C)CC4)s3)n2)c1` [Compound A-434], the half-maximal inhibitory concentration (IC50) in experiment [1] (Tables 1-x, compounds A) was 100 to 1000 nM; in experiment [2] (Tables 1-x, compounds A), more than 1000 nM.

With `COCCNC(=O)C1CCN(c2ncc(-c3cccc(Nc4cc(C)ccn4)n3)s2)CC1` [Compound A-435], the concentration for half-maximal inhibition (IC50) in experiment [1] (Tables 1-x, compounds A) was 100 to 1000 nM; in experiment [2] (Tables 1-x, compounds A) it was more than 1000 nM.
